{"source": "patent US20180064780A1", "about": "“SHEAR CONTROLLED RELEASE FOR STENOTIC LESIONS AND THROMBOLYTIC THERAPIES” (PRESIDENT AND FELLOWS OF HARVARD COLLEGE, priority 2010, published 2018)", "key": {"fibrin clots": {"biological_target": "T1, fibrin clots (Homo sapiens, UniProt P02671+P02675+P02679)", "T1 construct": "purchased Enzyme Research Laboratories, IN (fibrinogen, alpha-thrombin); Cell Sciences, MA (plasminogen)", "T1 sequence (P02671 36-629 limits assumed)": "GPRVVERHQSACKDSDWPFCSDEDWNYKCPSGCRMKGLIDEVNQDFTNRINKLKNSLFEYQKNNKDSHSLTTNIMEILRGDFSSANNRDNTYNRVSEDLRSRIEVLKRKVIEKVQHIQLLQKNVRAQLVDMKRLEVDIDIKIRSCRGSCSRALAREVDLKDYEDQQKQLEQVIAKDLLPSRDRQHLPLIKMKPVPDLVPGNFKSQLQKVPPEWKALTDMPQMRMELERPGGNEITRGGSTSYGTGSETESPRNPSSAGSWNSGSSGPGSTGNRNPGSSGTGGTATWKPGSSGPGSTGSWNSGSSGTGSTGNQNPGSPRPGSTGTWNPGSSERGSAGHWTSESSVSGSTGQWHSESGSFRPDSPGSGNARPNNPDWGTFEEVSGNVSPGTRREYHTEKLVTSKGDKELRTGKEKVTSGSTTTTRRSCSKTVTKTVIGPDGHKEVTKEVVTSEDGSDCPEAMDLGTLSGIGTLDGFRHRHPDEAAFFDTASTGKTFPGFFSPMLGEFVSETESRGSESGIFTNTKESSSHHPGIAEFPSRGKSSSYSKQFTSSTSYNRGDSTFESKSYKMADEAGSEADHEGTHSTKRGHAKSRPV", "T1 sequence (P02675 45-491 limits assumed)": "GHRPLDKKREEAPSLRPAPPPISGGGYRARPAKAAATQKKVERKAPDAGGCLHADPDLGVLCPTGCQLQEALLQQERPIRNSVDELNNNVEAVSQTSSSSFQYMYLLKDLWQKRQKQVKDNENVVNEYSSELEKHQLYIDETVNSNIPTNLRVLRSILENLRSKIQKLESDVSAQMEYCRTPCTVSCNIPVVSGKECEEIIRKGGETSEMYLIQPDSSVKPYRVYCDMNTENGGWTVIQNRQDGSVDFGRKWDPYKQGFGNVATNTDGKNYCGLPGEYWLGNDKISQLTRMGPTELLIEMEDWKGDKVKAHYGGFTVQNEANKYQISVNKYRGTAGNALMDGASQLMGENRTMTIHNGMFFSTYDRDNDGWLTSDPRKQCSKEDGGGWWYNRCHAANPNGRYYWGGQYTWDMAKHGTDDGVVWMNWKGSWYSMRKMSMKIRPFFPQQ", "T1 sequence (P02679 27-437 isoform P02679-2 limits assumed)": "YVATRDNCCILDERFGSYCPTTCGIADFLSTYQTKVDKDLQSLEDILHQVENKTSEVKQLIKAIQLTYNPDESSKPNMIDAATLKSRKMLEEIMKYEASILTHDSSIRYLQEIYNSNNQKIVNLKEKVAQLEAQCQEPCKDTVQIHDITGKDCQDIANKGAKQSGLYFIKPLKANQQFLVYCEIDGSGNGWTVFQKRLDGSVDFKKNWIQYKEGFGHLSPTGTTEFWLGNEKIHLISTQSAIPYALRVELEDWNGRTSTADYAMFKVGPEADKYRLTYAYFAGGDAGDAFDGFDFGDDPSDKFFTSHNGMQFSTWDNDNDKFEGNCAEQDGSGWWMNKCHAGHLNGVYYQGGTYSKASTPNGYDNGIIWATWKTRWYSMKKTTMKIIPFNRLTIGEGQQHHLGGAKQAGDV", "experiment": "Microfluidic model of vascular embolism (fibrin clot lysis)", "type": "biochemical", "conditions": "t-PA 50 ng/ml; within 1 hour; 10 dyne/cm^2 in unobstructed channel", "excerpt": "Microfluidic Models of Vascular Embolism—\nMicrofluidic devices with a narrowed cross-sectional area (80 μm high×0.5 mm wide s 200 mm long) were fabricated using soft lithography as described above. Fibrin clots formed as described below that were infused into the main channel lodged and obstructed the flow in these smaller channels. A solution of t-PA or t-PA coated microaggregates was infused at a flow rate corresponding to a shear stress of 10 dyne/cm^2 in an unobstructed channel. Prior to infusion of the t-PA solutions, bovine plasminogen (Cell Sciences, MA) was added to a final concentration of 2.2 μM (S. L. Diamond, Annual review of biomedical engineering 1, 427 (1999)). During the fibrinolysis process, the fibrin clots size were monitored in real-time (images acquired every 30 sec) on an inverted Zeiss microscope.\nExperimental Fibrin Emboli—\nFibrin clots were formed by adding CaCl2 (20 mM) and human α-thrombin (1 units/ml final concentrations, Enzyme Research Laboratories, IN) to human fibrinogen (5 mg/ml, Enzyme Research Laboratories, IN), as previously described (J. C. Murciano et al., Nature biotechnology 21, 891 (2003) and C. K. Lam, T. Yoo, B. Hiner, Z. Liu, J. Grutzendler, Nature 465, 478 (2010)). […] The diameter of the resulting fibrin beads was determined by optical microscopy to be ˜[…]."}, "[1]": {"test_system": "ex vivo whole mouse lung with fibrin emboli", "experiment": "Mouse pulmonary embolism model (ex vivo whole lung ventilation-perfusion)", "type": "in vivo", "protocol": "Mouse Pulmonary Embolism Model—\nMale 6-8 week-old C57BL/6 mice (Jackson Laboratory, Bar Harbor, Me.) were weighed and anesthetized with Avertin (200 mg/kg IP). The trachea was incised via surgical tracheotomy, and cannulated with a blunted 22G stainless steel needle tip. The lungs were subsequently ventilated at a rate of 60 breaths/min, with a Peak Inspiratory Pressure (Pip) of 10 cm H2O and a Positive End Expiratory Pressure (Peep) of 3 cm H2O with compressed air using a mouse ventilator (VCM-R, Hugo Sachs Elektroniks, Germany). Ex vivo ventilation and perfusion of the mouse lung was performed using a IL1 ex vivo mouse lung ventilation-perfusion system (Harvard Apparatus, Natick, Mass.), (D. Huh et al., Science 328, 1662 (2010)). Following initiation of mechanical ventilation, the chest was opened via thoracotomy, and heparin (100 IU) was injected into the right ventricle. […] A suture was placed around the pulmonary artery and aorta. Cannulae made from polyethylene tubing (PE90 (0.86 mm ID, 1.7 mm OD)) were placed in the pulmonary artery (PA) and left atrium (LA), and lungs were perfused with RPMI-1640 with 4% Bovine Albumin (Probumin™ Reagent Grade, Billerica, Mass.) and 0.7 g NaCl/500 mL via a roller pump (ISM 834C, Ismatec SA, Switzerland) set at a constant flow rate of 0.5 ml/min in a recirculating system with a system volume of 6 mL. Perfusate and lung temperatures were maintained at 37° C. by housing the entire ex-vivo ventilation perfusion system inside a standard cell incubator without CO2 (Forma Scientific, Ohio). Humidity was maintained in the range of 90-95%. Pulmonary arterial and venous pressures and airway flow and pressures were recorded with dedicated Type 379 vascular pressure and DLP2.5 flow and MPX Type 399/2 airway pressure transducers and TAM-A amplifiers (Hugo Sachs Elektroniks, Germany). Vascular pressures were zeroed at the mid lung level prior to each experiment and recorded using Polyview16© software (Grass Technologies, West Warwick, R.I.) running on a desktop PC running Windows XP SP2 (Microsoft Corporation, Redmond, Wash.).\nPrior to injection of experimental fibrin clots (prepared as above), the measured parameters were allowed to stabilize and remain stable for a period of more than 10 minutes. A solution of fibrin clots suspended in perfusion medium was infused at a flow rate of 0.1 ml/min and mixed with the regular perfusion line entering the pulmonary artery. The fibrin clot suspension was infused until the pulmonary artery pressure increased to ˜three-fold higher than the baseline. The system was then allowed to equilibrate and remain stable for at least 10 minutes. Next, tPA-coated platelet mimetics or free soluble tPA was added to the main perfusion line and circulated through the perfusion system. As in the microfluidic device experiments, when tPA was perfused, plasminogen was added to obtain a final concentration of 2.2 μM. Pulmonary artery and vein pressures were acquired continuously during the perfusion period. At the end of each experiment, lungs were perfused with 4% paraformaldehyde, and prepared for sectioning by incubating in 4% paraformaldehyde, then sucrose and OCT. All experimental animal protocols were approved by the Institutional Animal Care and Use Committee at Children's Hospital Boston and Harvard Medical School."}}}
{"substance": "tissue plasminogen activator [free t-PA]", "values": [{"measurement": "reduction of emboli (clot) size", "setting": "fibrin clots", "result": "< 5", "unit": "%"}, {"measurement": "dose required for similar effects on thrombolysis relative to tPA-coated platelet mimetics", "setting": "[1]; 5000 ng/ml vs 50 ng/ml", "result": 100, "unit": "fold"}, {"measurement": "effect on pulmonary artery pressure", "setting": "[1]; 10 times higher dose, 500 ng/ml (FIG. 5G)", "result": "did not reduce the pulmonary artery pressure"}, {"measurement": "effect on pulmonary artery pressure", "setting": "[1]; tPA 50 ng/ml (FIG. 5G)", "result": "did not reduce the pulmonary artery pressure"}, {"measurement": "effect on pulmonary artery pressure", "setting": "[1]; tPA 50 ng/ml (FIG. 5G), listed as soluble tPA", "result": "failed to produce any significant clinical response"}, {"measurement": "real-time pulmonary artery pressure: effect on pulmonary hypertension", "setting": "[1]; tPA 50 ng/ml (FIG. 5H)", "result": "ineffective"}]}
